Experiments:
[1] = target: T1, GK-GKRP (interaction between glucokinase and glucokinase regulatory protein) (Homo sapiens, UniProt Q14397); assay: GK-GKRP Binding Assay (Binding), AlphaScreen; conditions: avi-tagged GKRP, GK-fluorescein, AlphaScreen beads, 1 μM sorbitol-6-phosphate; read-out: GK-GKRP IC50 (Binding)
T1 construct: made in house; host or cells: GKRP: baculovirus system
T1 sequence (Q14397 1-625): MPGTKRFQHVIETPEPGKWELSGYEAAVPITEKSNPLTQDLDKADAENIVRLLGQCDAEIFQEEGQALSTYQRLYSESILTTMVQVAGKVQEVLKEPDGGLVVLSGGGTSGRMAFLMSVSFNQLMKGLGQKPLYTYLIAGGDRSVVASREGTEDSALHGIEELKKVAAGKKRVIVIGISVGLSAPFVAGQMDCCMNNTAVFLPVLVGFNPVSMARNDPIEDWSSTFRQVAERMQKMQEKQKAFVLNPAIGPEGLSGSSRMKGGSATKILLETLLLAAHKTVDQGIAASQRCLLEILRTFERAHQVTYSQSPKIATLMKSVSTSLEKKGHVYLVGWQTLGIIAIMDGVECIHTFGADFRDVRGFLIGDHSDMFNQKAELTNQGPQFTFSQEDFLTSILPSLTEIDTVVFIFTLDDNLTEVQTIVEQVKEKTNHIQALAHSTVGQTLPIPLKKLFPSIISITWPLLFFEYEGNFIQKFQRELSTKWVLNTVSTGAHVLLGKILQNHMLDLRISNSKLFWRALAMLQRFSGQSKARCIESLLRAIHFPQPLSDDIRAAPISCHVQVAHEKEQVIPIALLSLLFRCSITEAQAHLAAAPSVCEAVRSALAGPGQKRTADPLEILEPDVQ
Procedure, shortened: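 Biotinylated, C-terminally avi-tagged human GKRP was preincubated 20 min at room temperature with compound, then fluorescein-labelled human hepatic GK was added (6 nM in the added buffer). The mix was incubated 2 h at room temperature in the dark before AlphaScreen reading. Buffer was 20 mM Tris pH 7.5, 0.05% BSA, 1 mM DTT, 1 μM sorbitol-6-phosphate.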

[2] = target: T2, GK-GKRP (glucokinase / glucokinase regulatory protein) (Homo sapiens, UniProt Q14397); assay: GKRP LC MS/MS Biochemical Assay (LCMS/MS); conditions: formation of 13C-glucose-6-phosphate from 13C-glucose by LC MS/MS, human His-hepatic GK, fructose-6-phosphate
T2 sequence (Q14397 1-625): T1 sequence (Q14397 1-625)
Procedure, shortened: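 Human His-tagged hepatic GK (30 nM working stock, 5×) with GKRP in 50 mM Tris pH 7.5, 4 mM MgCl2, 6% DMSO; compound preincubated 30 min, then GK added for 30 min at room temperature. Acetonitrile-stopped; 13C-glucose-6-phosphate formed from 13C-glucose quantified by LC MS/MS.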

Row | Structure (SMILES) | IC50 [1] [nM] | EC50 [2] [nM]
1 | C[C@](O)(c1ccnc(-c2cccc3cc([C@@H](NS(=O)(=O)c4ccc5c(c4)OCCCO5)c4ccccc4)sc23)c1)C(F)(F)F (racemic) [Example 70, N-(phenyl(7-(4-(2,2,2-trifluoro-1-hydroxy-1-methylethyl)-2-pyridinyl)-1-benzothiophen-2-yl)methyl)-3,4-dihydro-2H-1,5-benzodioxepine-7-sulfonamide] | 21 | 26
2 | O=S(=O)(NC(c1ccccc1)c1cc2cccc(-c3ccccn3)c2s1)c1ccc2c(c1)OCCCO2 (racemic) [Example 71, N-(phenyl(7-(2-pyridinyl)-1-benzothiophen-2-yl)methyl)-3,4-dihydro-2H-1,5-benzodioxepine-7-sulfonamide] | 540 | 290
3 | O=S(=O)(NC(c1ccccc1)c1cc2cccc(Cl)c2s1)c1ccc2c(c1)OCCCO2 (racemic) [Example 72, N-((7-chloro-1-benzothiophen-2-yl)(phenyl)methyl)-3,4-dihydro-2H-1,5-benzodioxepine-7-sulfonamide] | 1000 | 480
4 | O=S(=O)(NC(c1ccccc1)c1cc2cccc(-c3ccccc3)c2s1)c1ccc2c(c1)OCCCO2 (racemic) [Example 73, N-(phenyl(7-phenyl-1-benzothiophen-2-yl)methyl)-3,4-dihydro-2H-1,5-benzodioxepine-7-sulfonamide] | 1200 | 1000
5 | CSc1ccccc1C(NS(=O)(=O)c1ccc2c(c1)OCCO2)c1cc2ccccc2s1 (racemic) [Example 75, N-(1-benzothiophen-2-yl(2-(methylsulfanyl)phenyl)methyl)-2,3-dihydro-1,4-benzodioxine-6-sulfonamide] | 950 | 340
6 | CCc1ccccc1[C@H](NS(=O)(=O)c1ccc2c(c1)OCCCO2)c1cc2ccccc2o1 (single isomer, unassigned) [Example 6 Peak #1] | 4800 | > 50000
7 | CCc1ccccc1[C@@H](NS(=O)(=O)c1ccc2c(c1)OCCCO2)c1cc2ccccc2o1 (single isomer, unassigned) [Example 6 Peak #2] | 110 | 40
8 | COc1ccccc1[C@H](NS(=O)(=O)c1ccc2c(c1)OCCCO2)c1cc2ccccc2o1 (single isomer, unassigned) [Example 17 Peak #1] | 1200 | 6100
9 | COc1ccccc1[C@@H](NS(=O)(=O)c1ccc2c(c1)OCCCO2)c1cc2ccccc2o1 (single isomer, unassigned) [Example 17 Peak #2] | 52 | 52
10 | CSc1ccccc1[C@H](NS(=O)(=O)c1ccc2c(c1)OCCCO2)c1cc2ccccc2o1 (single isomer, unassigned) [Example 19 Peak #1] | 970 | 290
11 | CSc1ccccc1[C@@H](NS(=O)(=O)c1ccc2c(c1)OCCCO2)c1cc2ccccc2o1 (single isomer, unassigned) [Example 19 Peak #2] | 46 | 23
12 | O=S(=O)(N[C@H](c1cc2ccccc2o1)c1ccccc1Cl)c1ccc2c(c1)OCCCO2 (single isomer, unassigned) [Example 20 Peak #1] | 5700 | > 20000
13 | O=S(=O)(N[C@@H](c1cc2ccccc2o1)c1ccccc1Cl)c1ccc2c(c1)OCCCO2 (single isomer, unassigned) [Example 20 Peak #2] | 78 | 30
14 | O=S(=O)(N[C@H](c1cc2ccccc2o1)c1ccccc1I)c1ccc2c(c1)OCCCO2 (single isomer, unassigned) [Example 21 Peak #1] | > 33000 | > 20000
15 | O=S(=O)(N[C@@H](c1cc2ccccc2o1)c1ccccc1I)c1ccc2c(c1)OCCCO2 (single isomer, unassigned) [Example 21 Peak #2] | 40 | 42
16 | O=S(=O)(N[C@H](c1cc2ccccc2o1)c1ccccc1Br)c1ccc2c(c1)OCCCO2 (single isomer, unassigned) [Example 22 Peak #1] | 4500 | > 20000
17 | O=S(=O)(N[C@@H](c1cc2ccccc2o1)c1ccccc1Br)c1ccc2c(c1)OCCCO2 (single isomer, unassigned) [Example 22 Peak #2] | 83 | 26
18 | O=S(=O)(N[C@@H](c1ccccn1)c1cc2ccccc2o1)c1ccc2c(c1)OCCCO2 (single isomer, unassigned) [Example 25 Peak #1] | 3800 | 6000
19 | O=S(=O)(N[C@H](c1ccccn1)c1cc2ccccc2o1)c1ccc2c(c1)OCCCO2 (single isomer, unassigned) [Example 25 Peak #2] | 210 | 290

Row | Structure (SMILES) | IC50 [1] [nM] | EC50 [2] [nM]
20 | Cc1cccnc1[C@@H](NS(=O)(=O)c1ccc2c(c1)OCCCO2)c1cc2ccccc2o1 (single isomer, unassigned) [Example 26 Peak #2] | 120 | 85
21 | Cc1ccccc1[C@H](NS(=O)(=O)c1ccc2c(c1)OCCCO2)c1cc2ccccc2s1 (single isomer, unassigned) [Example 36 Peak #1] | 4000 | > 20000
22 | Cc1ccccc1[C@@H](NS(=O)(=O)c1ccc2c(c1)OCCCO2)c1cc2ccccc2s1 (single isomer, unassigned) [Example 36 Peak #2] | 240 | 62
23 | CCc1ccccc1[C@H](NS(=O)(=O)c1ccc2c(c1)OCCCO2)c1cc2ccccc2s1 (single isomer, unassigned) [Example 37 Peak #1] | 1300 | > 20000
24 | CCc1ccccc1[C@@H](NS(=O)(=O)c1ccc2c(c1)OCCCO2)c1cc2ccccc2s1 (single isomer, unassigned) [Example 37 Peak #2] | 130 | 38
25 | COc1ccccc1[C@H](NS(=O)(=O)c1ccc2c(c1)OCCCO2)c1cc2ccccc2s1 (single isomer, unassigned) [Example 40 Peak #1] | 360 | 130
26 | COc1ccccc1[C@@H](NS(=O)(=O)c1ccc2c(c1)OCCCO2)c1cc2ccccc2s1 (single isomer, unassigned) [Example 40 Peak #2] | 28 | 26
27 | CSc1ccccc1[C@H](NS(=O)(=O)c1ccc2c(c1)OCCCO2)c1cc2ccccc2s1 (single isomer, unassigned) [Example 41 Peak #1] | 140 | 40
28 | CSc1ccccc1[C@@H](NS(=O)(=O)c1ccc2c(c1)OCCCO2)c1cc2ccccc2s1 (single isomer, unassigned) [Example 41 Peak #2] | 8 | 13
29 | O=S(=O)(N[C@@H](c1ccccc1)c1cc2ccccc2s1)c1ccc2c(c1)OCCCO2 (single isomer, unassigned) [Example 57 Peak #1] | 3000 | 700
30 | O=S(=O)(N[C@H](c1ccccc1)c1cc2ccccc2s1)c1ccc2c(c1)OCCCO2 (single isomer, unassigned) [Example 57 Peak #2] | 1900 | 87
31 | CSc1ccccc1[C@H](NS(=O)(=O)c1ccc2c(c1)OCCCO2)c1cc2ccncc2s1 (single isomer, unassigned) [Example 64 Peak #1] | 430 | 180
32 | CSc1ccccc1[C@@H](NS(=O)(=O)c1ccc2c(c1)OCCCO2)c1cc2ccncc2s1 (single isomer, unassigned) [Example 64 Peak #2] | 1 | 10
33 | CSc1ccccc1[C@@H](NS(=O)(=O)c1ccc2c(c1)OCCCO2)c1nc2cccnc2s1 (single isomer, unassigned) [Example 65 Peak #2] | 7 | 15
34 | COc1ccccc1[C@@H](NS(=O)(=O)c1ccc2c(c1)OCCCO2)c1nc2cccnc2s1 (single isomer, unassigned) [Example 67 Peak #2] | 48 | 24
35 | O=S(=O)(N[C@@H](c1nc2cccnc2s1)c1ccccc1Cl)c1ccc2c(c1)OCCCO2 (single isomer, unassigned) [Example 68 Peak #2] | 20 | 29
36 | C[C@@](O)(c1ccnc(-c2cccc3cc([C@H](NS(=O)(=O)c4ccc5c(c4)OCCCO5)c4ccccc4)sc23)c1)C(F)(F)F (single isomer, unassigned) [Example 70 Peak #1] | 7 | 17
37 | C[C@](O)(c1ccnc(-c2cccc3cc([C@H](NS(=O)(=O)c4ccc5c(c4)OCCCO5)c4ccccc4)sc23)c1)C(F)(F)F (single isomer, unassigned) [Example 70 Peak #2] | 6 | 22
